From patent US20070189984A1, “Agents for use on skin and/or hair containing quadruply substituted cyclohexene compounds” (BEIERSDORF AF,, priority 2003, published 2007)

Tested on: primary normal human melanocytes
Assay: melanogenesis assay (C14-tyrosine incorporation)
Assay type: cell-based
Settings: incubation for 3 days, average, n=3
Experimental: By way of example, the test for the compound 6-methyl-8-(2,6,6-trimethylcyclohex-1-en-1-yl)octa-3,5-dien-2-one is given.
A melanogenesis assay was carried out after incubation for 3 days of primary normal human melanocytes with test substance compared to control. The numbers given in the table indicate the melanogenesis rates based on the untreated control (=100%) (measured as C14-tyrosine incorporation).

## CC(=O)/C=C/C=C(\C)CCC1=C(C)CCCC1(C)C [(3E,5E)-6-methyl-8-(2,6,6-trimethylcyclohex-1-en-1-yl)octa-3,5-dien-2-one]
0.1 μg/ml test substance
  melanogenesis rate based on the untreated control (=100%), measured as C14-tyrosine incorporation: 127%
1 μg/ml test substance
  melanogenesis rate based on the untreated control (=100%), measured as C14-tyrosine incorporation: 157%
